The values below come from patent publication US20250388593A1 (MITSUBISHI TANABE PHARMA CORPORATION, priority 2023, published 2025).

What is called Kd is the concentration at which binding is half-saturated. High values mean a looser complex, low ones a tighter complex.

Sequence of CRBN truncate (318-426) (Q96SW2 318-426): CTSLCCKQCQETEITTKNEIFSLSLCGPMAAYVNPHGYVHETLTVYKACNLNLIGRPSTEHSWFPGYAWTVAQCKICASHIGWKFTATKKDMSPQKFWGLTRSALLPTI

The target of this assay is CRBN truncate (318-426) (Homo sapiens (Human), UniProt Q96SW2). The assay is described as follows: Measurement of molecular interactions using surface plasmon resonance (SPR), Biacore T200. It counts as binding. To be noted: 25° C., immobilized CRBN truncate, upper limit of measurement 200 μM. On the procedure:
The instrument used was the Biacore T200 (manufactured by Cytiva). The CRBN truncate (318-426) was obtained by expressing a construct with an Avi-tag added at the C-terminus. The sensor chip used was Sensor Chip SA (manufactured by Cytiva). The CRBN truncate was immobilized using the affinity between SA (streptavidin) on the sensor chip and the Avi-tag. The running buffer was a mixture of 10 mM HEPES pH 7.5, 150 mM NaCl, 1 mM TCEP, 0.005% Tween 20, and 2% DMSO. […] Contact time and dissociation time were set at 60 seconds and 120 seconds, respectively.
For the compound `Cc1sc2c(c1C)C(c1ccc(Cl)cc1)=N[C@@H](CC(=O)NCCc1ccc(S(=O)(=O)N3CC4(CC(=O)N(C5CCC(=O)NC5=O)C4=O)C3)cc1)c1nnc(C)n1-2` (stereo partly drawn) [Example 317, 2-[(9S)-7-(4-chlorophenyl)-4,5,13-trimethyl-3-thia-1,8,11,12-tetraazatricyclo[8.3.0.02,6]trideca-2(6),4,7,10,12-pentaen-9-yl]-N-[2-[4-[[6-(2,6-dioxopiperidin-3-yl)-5,7-dioxo-2,6-diazaspiro[3.4]octan-2-yl]sulfonyl]phenyl]ethyl]acetamide], the dissociation constant Kd was < 50 µM. As for `O=C1CCC(N2C(=O)CC3(CN(C(=O)c4ccccc4)C3)C2=O)C(=O)N1` (centres unmarked) [Example 44-2, 2-Benzoyl-6-(2,6-dioxopiperidin-3-yl)-2,6-diazaspiro [3.4]octane-5,7-dione], the figure is ≥ 100 µM; as for `CC(C)(C)OC(=O)N1CCC(Oc2ccc(CN3CC4(CC(=O)N(C5CCC(=O)NC5=O)C4=O)C3)cc2)CC1` (centres unmarked) [Example 237, tert-Butyl 4-[4-[[6-(2,6-dioxopiperidin-3-yl)-5,7-dioxo-2,6-diazaspiro[3.4]octan-2-yl]methyl]phenoxy]piperidine-1-carboxylate], ≥ 100 µM. For the compound `Cc1sc2c(c1C)C(c1ccc(Cl)cc1)=N[C@@H](CC(=O)NCCCCCCn1ccc3c(C(=O)N4CCC5(CCCC(=O)NC5=O)CC4)cccc31)c1nnc(C)n1-2` [Example 326, 2-[(9S)-7-(4-chlorophenyl)-4,5,13-trimethyl-3-thia-1,8,11,12-tetraazatricyclo[8.3.0.02,6]trideca-2(6),4,7,10,12-pentaen-9-yl]-N-[6-[4-(7,9-dioxo-3,8-diazaspiro[5.6]undecane-3-carbonyl)indol-1-yl]hexyl]acetamide], the dissociation constant (Kd) is < 50 µM. As for `O=C1CCCC2(CCN(c3nc4ncccc4s3)C2)C(=O)N1` (centres unmarked) [Example 74, 2-([1,3]thiazolo[4,5-b]pyridin-2-yl)-2,7-diazaspiro[4.6]undecane-6,8-dione], the figure is ≥ 100 µM; as for `Nc1nccc(N2CCC3(CCCC(=O)NC3=O)C2)n1` (centres unmarked) [Example 182, 2-(2-Aminopyrimidin-4-yl)-2,7-diazaspiro[4.6]undecane-6,8-dione], ≥ 100 µM; as for `O=C1CCCC2(CCN(c3ccc(C(F)(F)F)cn3)C2)C(=O)N1` (centres unmarked) [Example 38, 2-[5-(trifluoromethyl)-2-pyridyl]-2,7-diazaspiro[4.6]undecane-6,8-dione], ≥ 100 µM. For `O=Cc1ccc(N2CCC3(CCCC(=O)NC3=O)C2)nc1` (centres unmarked) [Example 76, 6-(6,8-Dioxo-2,7-diazaspiro[4.6]undecane-2-yl)pyridine-3-carbaldehyde] the value was ≥ 100 µM; for `CC(C)(C)OC(=O)NCCCCCCCCN1CC2(CC(=O)N(C3CCC(=O)NC3=O)C2=O)C1` (centres unmarked) [Example 51, tert-Butyl N-[8-[6-(2,6-dioxopiperidin-3-yl)-5,7-dioxo-2,6-diazaspiro[3.4]octan-2-yl]octyl]carbamate], ≥ 100 µM; for `CC(C)(C)OC(=O)c1cccc(N2CC3(CC(=O)N(C4CCC(=O)NC4=O)C3=O)C2)n1` (centres unmarked) [Example 47, tert-Butyl 6-[6-(2,6-dioxopiperidin-3-yl)-5,7-dioxo-2,6-diazaspiro[3.4]octan-2-yl]pyridine-2-carboxylate], 50 to 100 µM.

Take `Cc1sc2c(c1C)C(c1ccc(Cl)cc1)=N[C@@H](CC(=O)NCCCCCOc1ccc3nc(N4CC5(CC(=O)N(C6CCC(=O)NC6=O)C5=O)C4)sc3c1)c1nnc(C)n1-2` (stereo partly drawn) [Example 321, 2-[(9S)-7-(4-chlorophenyl)-4,5,13-trimethyl-3-thia-1,8,11,12-tetraazatricyclo[8.3.0.02,6]trideca-2(6),4,7,10,12-pentaen-9-yl]-N-[5-[[2-[6-(2,6-dioxopiperidin-3-yl)-5,7-dioxo-2,6-diazaspiro[3.4]octan-2-yl]-1,3-benzothiazol-6-yl]oxy]pentyl]acetamide]: the Kd was < 50 µM. As for `Cc1sc2c(c1C)C(c1ccc(Cl)cc1)=N[C@@H](CC(=O)NCCCCCCCCNC(=O)c1ccc3nc(N4CCC5(CCCC(=O)NC5=O)C4)sc3c1)c1nnc(C)n1-2` (stereo partly drawn) [Example 329, N-[8-[[2-[(9S)-7-(4-chlorophenyl)-4,5,13-trimethyl-3-thia-1,8,11,12-tetraazatricyclo[8.3.0.02,6]trideca-2(6),4,7,10,12-pentaen-9-yl]acetyl]amino]octyl]-2-(6,8-dioxo-2,7-diazaspiro[4.6]undecan-2-yl)-1,3-benzothiazole-6-carboxamide], the figure is < 50 µM. As for `O=C1CCCC(NS(=O)(=O)c2ccc(Cl)cc2)C(=O)N1` (centres unmarked) [Example 8, 4-Chloro-N-(2,7-dioxoazepan-3-yl) benzenesulfonamide], the figure is ≥ 100 µM; as for `Cc1sc2c(c1C)C(c1ccc(Cl)cc1)=N[C@@H](CC(=O)NCCCCCCCCNC(=O)c1ccc(N3CC4(CC(=O)N(C5CCC(=O)NC5=O)C4=O)C3)nc1)c1nnc(C)n1-2` (stereo partly drawn) [Example 330, N-[8-[[2-[(9S)-7-(4-chlorophenyl)-4,5,13-trimethyl-3-thia-1,8,11,12-tetraazatricyclo[8.3.0.02,6]trideca-2(6),4,7,10,12-pentaen-9-yl]acetyl]amino]octyl]-6-[6-(2,6-dioxopiperidin-3-yl)-5,7-dioxo-2,6-diazaspiro[3.4]octan-2-yl]pyridine-3-carboxamide], < 50 µM. As for `Cn1c(=O)n(C2CCCC(=O)NC2=O)c2ccc(/C=C/C(=O)OC(C)(C)C)cc21` (centres unmarked) [Example 140, tert-Butyl (E)-3-[1-(2,7-oxazepan-3-yl)-3-methyl-2-oxo-benzimidazol-5-yl]-2-propenoate], the figure is ≥ 100 µM; as for `CC(C)(C)OC(=O)c1ccc(N2CC[C@]3(CCCC(=O)NC3=O)CC2=O)cc1` [Example 223, tert-Butyl 4-(4,7,9-trioxo-3,8-diazaspiro [5.6]dodecan-3-yl) benzoate], < 50 µM. Turning to `O=C1CCCC(n2ncc(-c3ccccc3)cc2=O)C(=O)N1` (centres unmarked) [Example 247, 3-(6-oxo-4-phenylpyridazin-1-yl)azepane-2,7-dione], the Kd was ≥ 100 µM. For `COc1ccc2c(c1)nnn2C1CCCC(=O)NC1=O` (centres unmarked) [Example 253, 3-(5-Methoxybenzotriazol-1-yl)azepane-2,7-dione] the value was ≥ 100 µM. For `CC(C)(C)OC(=O)c1cccc(C2CCCC(=O)NC2=O)c1` (centres unmarked) [Example 60, tert-Butyl 3-(2,7-dioxoazepan-3-yl) benzoate] the value was 50 to 100 µM; for `Nc1ccc(N2CCC3(CCCC(=O)NC3=O)C2)c(F)c1` (centres unmarked) [Example 86, 2-(4-Amino-2-fluorophenyl)-2,7-diazaspiro[4.6]undecane-6,8-dione], ≥ 100 µM; for `Cn1c(=O)n(C2CCCC(=O)NC2=O)c2cccc(C3=CCN(C(=O)OC(C)(C)C)CC3)c21` (centres unmarked) [Example 220, tert-Butyl 4-[1-(2,7-dioxoazepan-3-yl)-3-methyl-2-oxobenzimidazol-4-yl]-3,6-dihydro-2H-pyridine-1-carboxylate], 50 to 100 µM.

For the compound `CC(C)(C)OC(=O)NCCCCCOc1ccc2nc(N3CC4(CC(=O)N(C5CCC(=O)NC5=O)C4=O)C3)sc2c1` (centres unmarked) [Example 241, tert-Butyl N-[5-[[2-[6-(2,6-dioxopiperidin-3-yl)-5,7-dioxo-2,6-diazaspiro[3.4]octan-2-yl]-1,3-benzothiazol-6-yl]oxy]pentyl]carbamate], the dissociation constant (Kd) was ≥ 100 µM. For `O=C1CCCC2(CCN(C(=O)c3cnn4ccccc34)C2)C(=O)N1` (centres unmarked) [Example 153, 2-(Pyrazolo[1,5-a]pyridine-3-carbonyl)-2,7-diazaspiro[4.6]undecane-6,8-dione] the value was ≥ 100 µM.
